For data set [1], the system named is GS-5806- and AZ-27-resistant RSV. Briefly: Activity against GS-5806- and AZ-27-selected resistant viruses. The format is cell-based, respiratory syncytial virus. The conditions noted are these: GS-5806- and AZ-27-resistant viruses.
Data set [2] is described as follows: Plasma drug exposure in African Green monkey study. The class given is in vivo, African Green monkeys (Chlorocebus). Particulars: both sexes, plasma, 100 mg/kg BID oral, read-out: mean plasma Ctrough. From the text: The African green monkey model was selected for EDP-938 in vivo studies for its higher level of viral replication versus cotton rats and BALB/c mice. […] In this previous trial, patients who achieved RSV-604 levels in excess of the EC90 experienced a 2.31 log reduction in viral load. […] The lack of antiviral activity observed with RSV-604 could be a function of relatively poor potency compared to EDP-938 (Fig 1) and/or insufficient tissue exposure. While in this study the animals were not sacrificed and thus the drug level in the lung could not be determined, plasma samples were taken at 12h after the last dose (Ctrough) to confirm drug exposure. […] It is reasonable to project that given the same dose or exposure EDP-938 should perform better than RSV-604 in RSV infected patients as well.
A study of EDP-938 and RSV-604 in the African Green monkey (AGM) animal model was performed by BIOQUAL, Inc (Rockville, Maryland). Methods were similar to those run in a study by Ispas et al.. Six (6) male and 6 female AGMs (Chlorocebus) of 4–5 kg were purchased from PrimGen (Hines, Illinois). Each animal was challenged with 2 x 10^5 PFU of RSV A2 viral inoculum (Virapur, San Diego, CA). Four animals (2 per sex) in each group were treated with EDP-938, RSV-604, or vehicle control (0.5% w/v methylcellulose). […]

The subject of data set [3] is RSV-A2. Briefly: CPE assay, RSV-A2 in HEp-2 cells. The format is cell-based. The conditions noted are these: human respiratory syncytial virus. As to the method:
HEp-2, Vero, and BHK were seeded at 8,000 cells per well (cpw) in growth medium (Dulbecco’s Modified Eagle Medium (DMEM) with 1% GlutaMAX, 1% Penicillin/Streptomycin (P/S), 1% Non-Essential Amino Acids (NEAA), 10% Fetal Bovine Serum (FBS)) or (Minimum Essential Medium (MEM) with 10% FBS, 1% NEAA, 1% P/S) or (Eagle’s Minimum Essential Medium with L-Glutamine, with 10% FBS, 1% P/S) respectively. A549 seeded at 3,000 cpw in F-12K Kaighn’s Modification nutrient mixture with 10% FBS, 1% NEAA, 1% P/S. Cells seeded at time of infection in 96-well plates, final well volume 100μL. Compounds suspended in DMSO, serially diluted and added to wells at 0.5% final DMSO concentration. Viral stocks stabilized with 25% sucrose, previously titered using plaque assay, were added at desired MOI. Sucrose added to cells-only control wells to match percent added with virus. Unless otherwise noted, RSV-A strains were tested at 0.1 MOI and incubated for 5 days in a 37°C, 5% CO2 humidified incubator, and RSV-B at 0.5 MOI for 6 days. Cytopathic effect (CPE) determined using ATPlite (Perkin Elmer) measured with Envision luminometer. For RT-qPCR, RNA was extracted from whole well using Ambion RNAqueous-96 Automated Kit, and RT-qPCR run using Applied Biosystems TaqMan RNA-to-CT 1-Step Kit. […] All EC50s were calculated using the XLFit four-parameter logistic model 200 in Microsoft Excel.

In data set [4] the test system is RSV A2. Briefly: RSV-infected African Green monkey model, viral load. The class given is in vivo, African Green monkeys (Chlorocebus). The procedure:
African Green monkeys (AGMs) are permissive for human RSV infection and support a relatively higher level of viral replication compared to cotton rats and BALB/c mice. It has been previously validated as a non-human primate model for assessing in vivo efficacy of potential RSV vaccines and antiviral drugs. To evaluate the activity of EDP-938 in the AGM model, 4 animals each were treated with 100 mg/kg BID with EDP-938, RSV-604, or vehicle control via oral gavage starting 24 hours prior to RSV challenge and continuing for an additional 5 days. Samples were collected through bronchoalveolar lavage (BAL) and nasopharyngeal (NP) swab at various time points to determine viral load. […] Viral load in the NP swab samples was also determined.
A study of EDP-938 and RSV-604 in the African Green monkey (AGM) animal model was performed by BIOQUAL, Inc (Rockville, Maryland). Methods were similar to those run in a study by Ispas et al.. Six (6) male and 6 female AGMs (Chlorocebus) of 4–5 kg were purchased from PrimGen (Hines, Illinois). Each animal was challenged with 2 x 10^5 PFU of RSV A2 viral inoculum (Virapur, San Diego, CA). Four animals (2 per sex) in each group were treated with EDP-938, RSV-604, or vehicle control (0.5% w/v methylcellulose). The animals were dosed via oral gavage twice daily (every 12 hours), starting 24 hours prior to RSV challenge, and then continuing for an additional 5 days (6 total days of dose administration). Bronchoalveolar lavage (BAL) samples and nasopharyngeal (NP) swabs were collected for viral load determination.

For orientation: EC50 means the concentration that produces a half-maximal response. By EC90 is commonly meant the concentration needed for an effect of 90%. `O=C1Nc2ccccc2C(c2ccccc2)=N[C@@H]1Nc1nnc(-c2ncc(C(F)(F)F)cc2N2CCOCC2)o1` [EDP-938]: the “cross resistance of GS-5806- and AZ-27-resistant strains” value in data set [1] is “no signs of cross resistance”. Moreover, in data set [2], the concentration at 12 h after the last dose was determined as 1.48 µM. Further, in data set [3], the midpoint of the response, the EC50, lay at 0.028 ± 0.004 µM and the 90% effect level (EC90) was put at 0.04 ± 0.003 µM. Besides, the “reduction in peak viral load” value in data set [4] (100 mg/kg BID oral gavage) is recorded as ~ 4 log10. For the same compound, the “effect on RSV viral load vs vehicle control” value in data set [4] (100 mg/kg BID oral gavage, BAL) was “completely suppressed viral replication”. Moreover, the “viral load reduction in BAL” value in data set [4] (100 mg/kg BID oral gavage, Day 5, to below limit of detection (100 copies/mL)) is 4 log10. Further, the “viral load reduction in NP swab” value in data set [4] (100 mg/kg BID oral gavage, Day 7, to below limit of detection (100 copies/mL)) was 4 log10. In data set [4] (BAL fluid, above the limit of detection), the “viral rebound after cessation of treatment” value is recorded as “no viral rebound was observed”.

The values are drawn from PMC7993833, “EDP-938, a novel nucleoprotein inhibitor of respiratory syncytial virus, demonstrates potent antiviral activities in vitro and in a non-human primate model” (PLoS Pathogens, 2021).
